What was measured:
[1] = system: kochia (Kochia scoparia); test: Test A preemergence, visual injury rating 0-100; type: in vivo
[2] = system: ryegrass, Italian (Italian ryegrass, Lolium multiflorum); test: Test A preemergence, visual injury rating 0-100; type: in vivo
[3] = system: ragweed (common ragweed, Ambrosia elatior); test: Test A preemergence, visual injury rating 0-100; type: in vivo
[4] = system: pigweed (Amaranthus retroflexus); test: Test A preemergence, visual injury rating 0-100; type: in vivo
[5] = system: foxtail, giant (giant foxtail, Setaria faberii); test: Test A preemergence, visual injury rating 0-100; type: in vivo
[6] = system: ducksalad (Heteranthera limosa); test: Test B flooded paddy test, visual rating 0-100; conditions: Flood, 250 g ai/ha, applied to paddy water, rated after 13 to 15 days
[7] = system: blackgrass (Alopecurus myosuroides); test: Test A postemergence, visual injury rating 0-100; type: in vivo; conditions: 0 to 100 scale
[8] = system: kochia (Kochia scoparia); test: Test A postemergence, visual injury rating 0-100; type: in vivo; conditions: 0 to 100 scale
[9] = system: barnyardgrass (Echinochloa crus-galli); test: Test A postemergence, visual injury rating 0-100; type: in vivo; conditions: 0 to 100 scale
[10] = system: ryegrass, Italian (Italian ryegrass, Lolium multiflorum); test: Test A postemergence, visual injury rating 0-100; type: in vivo; conditions: 0 to 100 scale
[11] = system: galium (catchweed bedstraw, Galium aparine); test: Test A postemergence, visual injury rating 0-100; type: in vivo; conditions: 0 to 100 scale
[12] = system: ragweed (common ragweed, Ambrosia elatior); test: Test A postemergence, visual injury rating 0-100; type: in vivo; conditions: 0 to 100 scale
[13] = system: wheat (Triticum aestivum); test: Test A postemergence, visual injury rating 0-100; type: in vivo; conditions: 0 to 100 scale
[14] = system: pigweed (Amaranthus retroflexus); test: Test A postemergence, visual injury rating 0-100; type: in vivo; conditions: 0 to 100 scale
[15] = system: foxtail, giant (giant foxtail, Setaria faberii); test: Test A postemergence, visual injury rating 0-100; type: in vivo; conditions: 0 to 100 scale
[16] = system: corn (Zea mays); test: Test A postemergence, visual injury rating 0-100; type: in vivo; conditions: 0 to 100 scale
[17] = system: barnyardgrass (Echinochloa crus-galli); test: Test B flooded paddy test, visual rating 0-100; conditions: Flood, 250 g ai/ha, applied to paddy water, rated after 13 to 15 days
[18] = system: rice (Oryza sativa); test: Test B flooded paddy test, visual rating 0-100 (0 no effect, 100 complete control); conditions: Flood, 250 g ai/ha, applied to paddy water, rated after 13 to 15 days
[19] = system: barnyardgrass (Echinochloa crus-galli); test: Test A preemergence, visual injury rating 0-100 (0 no effect, 100 complete control); type: in vivo

| Structure (SMILES) | Kochia plant response rating (0 to 100 scale) ([1]; 125 g ai/ha) | Kochia plant response rating (0 to 100 scale) ([1]; 500 g ai/ha) | Ryegrass, Italian plant response rating (0 to 100 scale) ([2]; 500 g ai/ha) | Ragweed plant response rating (0 to 100 scale) ([3]; 125 g ai/ha) | Ragweed plant response rating (0 to 100 scale) ([3]; 500 g ai/ha) | Pigweed plant response rating (0 to 100 scale) ([4]; 125 g ai/ha) | Pigweed plant response rating (0 to 100 scale) ([4]; 500 g ai/ha) | Foxtail, Giant plant response rating (0 to 100 scale) ([5]; 125 g ai/ha) | Foxtail, Giant plant response rating (0 to 100 scale) ([5]; 500 g ai/ha) | Ducksalad plant response rating (0 to 100 scale) [6] | Blackgrass plant response rating ([7]; 125 g ai/ha) | Blackgrass plant response rating ([7]; 500 g ai/ha) | Kochia plant response rating ([8]; 125 g ai/ha) | Kochia plant response rating ([8]; 500 g ai/ha) | Barnyardgrass plant response rating ([9]; 125 g ai/ha) | Barnyardgrass plant response rating ([9]; 500 g ai/ha) | Ryegrass, Italian plant response rating ([10]; 125 g ai/ha) | Ryegrass, Italian plant response rating ([10]; 500 g ai/ha) | Galium plant response rating ([11]; 125 g ai/ha) | Galium plant response rating ([11]; 500 g ai/ha) | also measured |
| --- | --- | --- | --- | --- | --- | --- | --- | --- | --- | --- | --- | --- | --- | --- | --- | --- | --- | --- | --- | --- | --- |
| CC1=[N+]([O-])C(C(=O)Nc2cccc(F)c2F)C(c2ccc(C(F)(F)F)c(Cl)c2)C1 (racemic) [Compound 102] | 10 | 80 | 90 | 50 | 80 | 60 | 90 | 90 | 90 | 0 | 60 | 80 | 30 | 40 | 70 | 80 | 40 | 50 | 50 | 70 | Ryegrass, Italian plant response rating (0 to 100 scale) ([2]; 125 g ai/ha): 70; Ragweed plant response rating ([12]; 125 g ai/ha): 20; Ragweed plant response rating ([12]; 500 g ai/ha): 50; Wheat plant response rating ([13]; 125 g ai/ha): 20; Wheat plant response rating ([13]; 500 g ai/ha): 40; Pigweed plant response rating ([14]; 125 g ai/ha): 30; Pigweed plant response rating ([14]; 500 g ai/ha): 70; Foxtail, Giant plant response rating ([15]; 125 g ai/ha): 70; Foxtail, Giant plant response rating ([15]; 500 g ai/ha): 80; Corn plant response rating ([16]; 125 g ai/ha): 40; Corn plant response rating ([16]; 500 g ai/ha): 40; Barnyardgrass plant response rating (0 to 100 scale) [17]: 0; Rice plant response rating (0 to 100 scale) [18]: 0; Barnyardgrass plant response rating (0 to 100 scale) ([19]; 125 g ai/ha): 80; Barnyardgrass plant response rating (0 to 100 scale) ([19]; 500 g ai/ha): 90 |
| CC1=[N+]([O-])C(C(=O)Nc2cccc(F)c2F)C(c2cc(C)cc(F)c2)C1 (racemic) [Compound 103] | 10 | 80 | 90 | 60 | 90 | 30 | 70 | 90 | 100 | 80 | 80 | 70 | 0 | 30 | 80 | 90 | 50 | 70 | 0 | 50 | Ragweed plant response rating ([12]; 125 g ai/ha): 40; Ragweed plant response rating ([12]; 500 g ai/ha): 40; Wheat plant response rating ([13]; 125 g ai/ha): 20; Wheat plant response rating ([13]; 500 g ai/ha): 70; Pigweed plant response rating ([14]; 125 g ai/ha): 0; Pigweed plant response rating ([14]; 500 g ai/ha): 50; Foxtail, Giant plant response rating ([15]; 125 g ai/ha): 80; Foxtail, Giant plant response rating ([15]; 500 g ai/ha): 90; Corn plant response rating ([16]; 125 g ai/ha): 50; Corn plant response rating ([16]; 500 g ai/ha): 60; Barnyardgrass plant response rating (0 to 100 scale) [17]: 65; Rice plant response rating (0 to 100 scale) [18]: 0; Barnyardgrass plant response rating (0 to 100 scale) ([19]; 125 g ai/ha): 90; Barnyardgrass plant response rating (0 to 100 scale) ([19]; 500 g ai/ha): 90 |

Reference: patent US11498899B2, “Nitrone herbicides” (FMC Corporation, priority 2016, dated 2022)
